Laboratory results taken from patent publication EP0049683A2, “Imidazo-rifamycines, process for their preparation, pharmaceutical preparations containing them and their use” (CIBA-GEIGY AG, priority 1980, dated 1982).
Values after ≈ are worked out from the molar mass of the structure shown.

Experiments:
Assay in all cases: Agar dilution MIC in DST agar (Ericsson and Sherris)
Assay type in all cases: cell-based
[1] = system: Escherichia coli 2018; conditions: for MIC Esch. 2018: in vitro; for MIC: Escherichia coli, 2018, in vitro, read-out: MIC Esch. 2018
Source text: (§1) Die antibiotische Aktivität der Testverbindungen in vitro wurde durch die Agarverdünnungsmethode nach Ericsson, H.M., und Sherris, S.C., 1971, Acta Path. Microb. Scand. Section B, Suppl. No. 217, Bd. 1-90, in DST Agara ermittelt. Die gefundenen, das Wachstum der Testorganismen noch hemmenden Minimalkonzentrationen (MIC = minimum inhibiting concentrations) werden in Mikrogramm pro Milliliter (µg/ml) für die geprüften Verbindungen in der Tabelle 1 angegeben.

[2] = system: Staphylococcus aureus 10B; conditions: in vitro; for MIC: Staphylococcus aureus, 10B, read-out: MIC Staph. 10B
Source text: as §1

[3] = system: Staphylococcus aureus 2999; conditions: for MIC Staph. 2999: in vitro
Source text: as §1

[4] = system: Escherichia coli 205; conditions: for MIC Esch. 205: in vitro; for MIC: Escherichia coli, 205, in vitro, read-out: MIC Esch. 205
Source text: as §1

[5] = system: Pseudomonas aeruginosa K 799/61; conditions: for MIC Pseu. 799: in vitro, agar dilution, DST agar; for MIC: Pseudomonas aeruginosa, K799/61, read-out: MIC Pseu. 799
Source text: as §1

[6] = system: Proteus morganii 1518; conditions: for MIC Prot. 1518: in vitro; for MIC: Morganella morganii, 1518, in vitro, read-out: MIC Prot. 1518
Source text: as §1

[7] = system: Salmonella Typhimurium 277; conditions: in vitro; for MIC: Salmonella enterica, TYPHIMURIUM, read-out: MIC Salm. 277
Source text: as §1

[8] = system: Proteus morganii 2359; conditions: for MIC Prot. 2359: in vitro; for MIC: Morganella morganii, 2359, in vitro, read-out: MIC Prot. 2359
Source text: as §1

| Compound | MIC Esch. 2018 [1] [µg/mL] | MIC Staph. 10B [2] [µg/mL] | MIC Staph. 2999 [3] [µg/mL] | MIC Esch. 205 [4] [µg/mL] | MIC Pseu. 799 [5] [µg/mL] | MIC Prot. 1518 [6] [µg/mL] | MIC Salm. 277 [7] [µg/mL] | MIC Prot. 2359 [8] [µg/mL] | MIC [1] [µg/mL] | MIC [2] [µg/mL] | MIC ([3]; Staphylococcus aureus, 2999, in vitro, read-out: MIC Staph. 2999) [µg/mL] | MIC [4] [µg/mL] | MIC [5] [µg/mL] | MIC [6] [µg/mL] | MIC [7] [µg/mL] | MIC [8] [µg/mL] |
| --- | --- | --- | --- | --- | --- | --- | --- | --- | --- | --- | --- | --- | --- | --- | --- | --- |
| 4-{4-[2-(1,3- Dioxolan-2-yl)-ethyl]-piperazinyl}-imidazolo-[4,5-c]rifamycin SV [Verbindung 62] | 32 | 0.02 | 0.02 | 32 | 32 | 8 | 128 | 8 | – | – | – | – | – | – | – | – |
| 4-(4-Heptylpiperazinyl)-imidazolo[4,5-c]rifamycin SV [Verbindung 36] | 8 | – | – | 2 | 8 | 8 | 32 | 8 | – | – | – | – | – | – | – | – |
| 4-(3-Diethylaminocarbonyl-1-piperidyl)-imidazolo[4,5-c]-rifamycin SV [Verbindung 26] | 32 | 0.05 | 0.01 | 16 | 16 | 16 | 84 | 16 | – | – | – | – | – | – | – | – |
| CO[C@H]1/C=C/O[C@@]2(C)Oc3c(C)c(O)c4c(O)c(c5[nH]c(N6CCN(CC(C)=C(C)C)CC6)nc5c4c3C2=O)NC(=O)/C(C)=C\C=C\[C@H](C)[C@H](O)[C@@H](C)[C@@H](O)[C@@H](C)[C@H](OC(C)=O)[C@@H]1C [Verbindung 48] | – | – | – | – | – | – | – | – | 8 (≈ 9.01 µM) | 0.001 (≈ 0.00113 µM) | 0.001 (≈ 0.00113 µM) | 32 (≈ 36 µM) | 32 (≈ 36 µM) | 8 (≈ 9.01 µM) | 32 (≈ 36 µM) | 8 (≈ 9.01 µM) |
| 4-(4-Isopropyloxycarbonylpiperazinyl)-imidazolo[4,5-c]-rifamycin SV [Verbindung 68] | 32 | 0.01 | – | 32 | 8 | 8 | 32 | 32 | – | – | – | – | – | – | – | – |
| CCC(C)CCN1CCN(c2nc3c([nH]2)c2c(O)c4c(O)c(C)c5c(c43)C(=O)[C@@](C)(O/C=C/[C@H](OC)[C@@H](C)[C@@H](OC(C)=O)[C@H](C)[C@H](O)[C@H](C)[C@@H](O)[C@@H](C)/C=C/C=C(/C)C(=O)N2)O5)CC1 (stereo partly drawn) [Verbindung 42, 4-[4-(3-Methylpentyl)-piperazinyl]-imidazolo[4,5-c]-rifamycin SV] | – | – | – | – | – | – | – | – | 8 (≈ 8.99 µM) | 0.005 (≈ 0.00562 µM) | – | 8 (≈ 8.99 µM) | 32 (≈ 36 µM) | 8 (≈ 8.99 µM) | 32 (≈ 36 µM) | 8 (≈ 8.99 µM) |
| CCCC(C)CN1CCN(c2nc3c([nH]2)c2c(O)c4c(O)c(C)c5c(c43)C(=O)[C@@](C)(O/C=C/[C@H](OC)[C@@H](C)[C@@H](OC(C)=O)[C@H](C)[C@H](O)[C@H](C)[C@@H](O)[C@@H](C)/C=C/C=C(/C)C(=O)N2)O5)CC1 (stereo partly drawn) [Verbindung 39, 4-[4-(2-Methylpentyl)-piperazinyl]-imidazolo[4,5-c]-rifamycin SV] | – | – | – | – | – | – | – | – | 8 (≈ 8.99 µM) | – | – | 8 (≈ 8.99 µM) | 32 (≈ 36 µM) | 8 (≈ 8.99 µM) | 32 (≈ 36 µM) | 8 (≈ 8.99 µM) |
| C=CCN1CCN(c2nc3c([nH]2)c2c(O)c4c(O)c(C)c5c(c43)C(=O)[C@@](C)(O/C=C/[C@H](OC)[C@@H](C)[C@@H](OC(C)=O)[C@H](C)[C@H](O)[C@H](C)[C@@H](O)[C@@H](C)/C=C/C=C(/C)C(=O)N2)O5)CC1 [Verbindung 44, 4-(4-Allylpiperazinyl)-imidazolo[4,5-c]rifamycin SV] | – | – | – | – | – | – | – | – | 8 (≈ 9.46 µM) | – | – | 8 (≈ 9.46 µM) | 32 (≈ 37.8 µM) | 8 (≈ 9.46 µM) | 32 (≈ 37.8 µM) | 8 (≈ 9.46 µM) |
| 4-(4-Hexylpiperazinyl)-imidazolo[4,5-c]rifamycin SV [Verbindung 35] | 8 | – | – | 8 | 8 | 8 | 32 | 8 | – | – | – | – | – | – | – | – |
| 4-[4-(2-Methyl-3-phenyl-propyl)-piperazinyl]-imidazolo- [4,5-c]rifamycin SV [Verbindung 58] | – | 0.005 | 0.005 | 16 | 16 | 16 | 32 | 16 | – | – | – | – | – | – | – | – |
| 4-(N-Butyl-N-methylamino)-imidazolo[4,5-c]rifamycin SV [Verbindung 9] | 8 | – | – | 8 | 8 | 1 | 32 | 8 | – | – | – | – | – | – | – | – |
| CO[C@H]1/C=C/O[C@@]2(C)Oc3c(C)c(O)c4c(O)c(c5nc(N6CCN(CC7CCCCCC7)CC6)[nH]c5c4c3C2=O)NC(=O)/C(C)=C\C=C\[C@H](C)[C@H](O)[C@@H](C)[C@@H](O)[C@@H](C)[C@H](OC(C)=O)[C@@H]1C [Verbindung 56] | – | – | – | – | – | – | – | – | 8 (≈ 8.73 µM) | 0.005 (≈ 0.00546 µM) | – | 8 (≈ 8.73 µM) | 32 (≈ 34.9 µM) | 8 (≈ 8.73 µM) | 32 (≈ 34.9 µM) | 8 (≈ 8.73 µM) |
| 4-(2,6-Dimethyl-morpholino)-imidazolo[4,5-c]rifamycin SV [Verbindung 29] | 32 | – | – | 32 | 8 | 8 | 128 | 8 | – | – | – | – | – | – | – | – |
| C=C(C)CN1CCN(c2nc3c([nH]2)c2c(O)c4c(O)c(C)c5c(c43)C(=O)[C@@](C)(O/C=C/[C@H](OC)[C@@H](C)[C@@H](OC(C)=O)[C@H](C)[C@H](O)[C@H](C)[C@@H](O)[C@@H](C)/C=C/C=C(/C)C(=O)N2)O5)CC1 [Verbindung 46, 4-[4-(2-Methyl-2-propenyl)-piperazinyl]-imidazolo[4,5-c]-rifamycin SV] | – | – | – | – | – | – | – | – | 8 (≈ 9.3 µM) | – | – | 32 (≈ 37.2 µM) | 32 (≈ 37.2 µM) | 8 (≈ 9.3 µM) | 32 (≈ 37.2 µM) | 8 (≈ 9.3 µM) |
| 4-(4-Pentylpiperazinyl)-imidazolo[4,5-c]rifamycin SV [Verbindung 34] | 2 | – | – | 8 | 32 | 8 | 32 | 8 | – | – | – | – | – | – | – | – |
| 4-Thiomorpholino-imidazolo[4,5-c]rifamycin SV [Verbindung 30] | 8 | – | – | 8 | 32 | 8 | 32 | 8 | – | – | – | – | – | – | – | – |
| CO[C@H]1/C=C/O[C@@]2(C)Oc3c(C)c(O)c4c(O)c(c5[nH]c(N6CCc7ccccc76)nc5c4c3C2=O)NC(=O)/C(C)=C\C=C\[C@H](C)[C@H](O)[C@@H](C)[C@@H](O)[C@@H](C)[C@H](OC(C)=O)[C@@H]1C [Verbindung 20, 4-Indolinyl-imidazolo[4,5-c]rifamycin SV] | – | – | – | – | – | – | – | – | 8 (≈ 9.54 µM) | – | – | 8 (≈ 9.54 µM) | 16 (≈ 19.1 µM) | 4 (≈ 4.77 µM) | 32 (≈ 38.1 µM) | 8 (≈ 9.54 µM) |
| CO[C@H]1/C=C/O[C@@]2(C)Oc3c(C)c(O)c4c(O)c(c5nc(N6CCN(c7ccccc7)CC6)[nH]c5c4c3C2=O)NC(=O)/C(C)=C\C=C\[C@H](C)[C@H](O)[C@@H](C)[C@@H](O)[C@@H](C)[C@H](OC(C)=O)[C@@H]1C [Verbindung 52, 4-(4-Phenylpiperazinyl)-imidazolo[4,5-c]rifamycin SV] | – | – | – | – | – | – | – | – | 8 (≈ 9.07 µM) | – | – | 32 (≈ 36.3 µM) | 32 (≈ 36.3 µM) | 8 (≈ 9.07 µM) | 32 (≈ 36.3 µM) | 8 (≈ 9.07 µM) |
| CCN(CC)c1nc2c3c(O)c4c(O)c(C)c5c(c4c2[nH]1)C(=O)C(C)(OC=CC(OC)C(C)C(OC(C)=O)C(C)C(O)C(C)C(O)C(C)C=CC=C(C)C(=O)N3)O5 (stereo not drawn) [Verbindung 6, 4-Diethylamino-imidazolo[4,5-c]rifamycin SV] | – | – | – | – | – | – | – | – | 128 (≈ 161 µM) | – | – | 128 (≈ 161 µM) | 128 (≈ 161 µM) | 128 (≈ 161 µM) | 128 (≈ 161 µM) | 128 (≈ 161 µM) |
| 4-(4-Isobutyl-2-methyl-piperazinyl)-imidazolo[4,5-c]rifamycin SV [Verbindung 75] | 8 | 0.01 | – | 8 | 32 | 2 | 32 | 8 | – | – | – | – | – | – | – | – |
| 4-[4-(1-Ethylpropyl)-piperazinyl]-imidazolo[4,5-c]rifamycin SV [Verbindung 41] | 2 | 0.005 | – | 8 | 32 | 8 | – | 8 | – | – | – | – | – | – | – | – |
| CO[C@H]1/C=C/O[C@@]2(C)Oc3c(C)c(O)c4c(O)c(c5nc(N6CCN(C7CCCCC7)CC6)[nH]c5c4c3C2=O)NC(=O)/C(C)=C\C=C\[C@H](C)[C@H](O)[C@@H](C)[C@@H](O)[C@@H](C)[C@H](OC(C)=O)[C@@H]1C [Verbindung 51, 4-(4-Cyclohexylpiperazinyl)-imidazolo[4,5-c]rifamycin SV] | – | – | – | – | – | – | – | – | 32 (≈ 36 µM) | 0.01 (≈ 0.0113 µM) | – | 8 (≈ 9.01 µM) | 8 (≈ 9.01 µM) | 8 (≈ 9.01 µM) | 32 (≈ 36 µM) | 8 (≈ 9.01 µM) |
